SMILES strings stand for the structures. Calls of active or inactive are those of the source. The rule behind the calls is not given here.

The results in this text go back to ChEMBL document CHEMBL4732108, “Targeting the K11.1 (hERG) channel with allosteric modulators. Synthesis and biological evaluation of three novel series of LUF7346 derivatives” (Eur J Med Chem, 2021).

One series deals with hERG (KCNH2) (Homo sapiens, UniProt Q12809). Nature of the series: Displacement of [3H]dofetilide from human ERG stably expressed in HEK293 cell membranes assessed as residual binding level at 10 uM measured after 60 mins by microbeta liquid scintillation counting method relative to control. Details: species or system Membrane. The note with it: membranes of HEK293 cells stably expressing hERG, probe [3H]dofetilide, read-out: Activity. On the technique in general: Displacement assays read how much labelled ligand stays bound in the presence of the test substance.

The target in series [1] is T1, Voltage-gated inwardly rectifying potassium channel KCNH2 (Homo sapiens, UniProt Q12809). As to the kind of experiment: Displacement of [3H]dofetilide from human ERG stably expressed in HEK293 cell membranes assessed as unlabelled dofetilide IC50 at 1 uM measured after 60 mins by microbeta liquid scintillation counting method (reference value: 9.1 to 11.7 nM). Further details: species or system Membrane.

Series [2] addresses T1, Voltage-gated inwardly rectifying potassium channel KCNH2. Nature of the series: Displacement of [3H]dofetilide from human ERG stably expressed in HEK293 cell membranes assessed as unlabelled dofetilide IC50 at 3 uM measured after 60 mins by microbeta liquid scintillation counting method (reference value: 9.1 to 11.7 nM). Further details: species or system Membrane.
Series [3] has as its system Stem cell-derived cardiomyocyte. As to the kind of experiment: Effect on human iPSC-derived cardiomyocytes assessed as prolongation of field potential duration by microarray electrode based assay. Format: functional, tissue-based.
The test system is the same in series [4]. As to the kind of experiment: Effect on human iPSC-derived cardiomyocytes assessed as reduction in beating rate by measuring change in RR interval at 30 uM by microarray electrode based assay. The series is classed as functional, tissue-based.
Series [5] has as its target T1, Voltage-gated inwardly rectifying potassium channel KCNH2. As to the kind of experiment: Channel blockade of human ERG stably expressed in HEK293 cells assessed as decrease in current density at 5 uM with -60 mV holding potential measured after 5 mins by whole cell patch clamp method. The note with it: hek293, 5 min. On the technique in general: The patch-clamp technique gives a direct electrical read-out from membranes.

Series [6] relates to Stem cell-derived cardiomyocyte. Nature of the series: Effect on human iPSC-derived cardiomyocytes assessed as reduction in beating rate by measuring change in RR interval at higher concentration by microarray electrode based assay. Format: functional.
For series [7] the test system is unchanged. Nature of the series: Effect on human iPSC-derived cardiomyocytes assessed as suppression of dofetilide-induced increase in field potential duration by microarray electrode based assay. The series is classed as functional.
Series [8] shares this test system. As to the kind of experiment: Effect on dofetilide-induced reduction in RR interval in human iPSC-derived cardiomyocytes by microarray electrode based assay. The series is classed as functional.
Series [9] concerns the target T1, Voltage-gated inwardly rectifying potassium channel KCNH2. Nature of the series: Displacement of [3H]dofetilide from human ERG stably expressed in HEK293 cell membranes assessed as unlabelled dofetilide IC50 at 10 uM measured after 60 mins by microbeta liquid scintillation counting method (reference value: 9.1 to 11.7 nM). Details: species or system Membrane.
Series [10] concerns Stem cell-derived cardiomyocyte. As to the kind of experiment: Effect on human iPSC-derived cardiomyocytes assessed as change in field potential duration by microarray electrode based assay. The series is classed as functional.
The test system is the same in series [11]. As to the kind of experiment: Effect on dofetilide-induced reduction in RR interval in human iPSC-derived cardiomyocytes at 10 to 30 uM by microarray electrode based assay. The conditions noted are these: dose 10-30 µM. Format: functional.
In series [12] the target is T1, Voltage-gated inwardly rectifying potassium channel KCNH2. As to the kind of experiment: Negative allosteric modulation of human ERG stably expressed in HEK293 cells assessed as increase in current density at 5 uM with -60 mV holding potential measured after 5 mins by whole cell patch clamp method. The conditions noted are these: hek293, 5 min.
In series [13] the test system is Stem cell-derived cardiomyocyte. Nature of the series: Effect on human iPSC-derived cardiomyocytes assessed as suppression of dofetilide-induced increase in field potential duration at 10 to 30 uM by microarray electrode based assay. The series is classed as functional. The note with it: dose 10-30 µM.
The test system is the same in series [14]. As to the kind of experiment: Effect on human iPSC-derived cardiomyocytes assessed as shortening of field potential duration by microarray electrode based assay. Format: functional, tissue-based.

Sequence of hERG (KCNH2) (Q12809 whole entry): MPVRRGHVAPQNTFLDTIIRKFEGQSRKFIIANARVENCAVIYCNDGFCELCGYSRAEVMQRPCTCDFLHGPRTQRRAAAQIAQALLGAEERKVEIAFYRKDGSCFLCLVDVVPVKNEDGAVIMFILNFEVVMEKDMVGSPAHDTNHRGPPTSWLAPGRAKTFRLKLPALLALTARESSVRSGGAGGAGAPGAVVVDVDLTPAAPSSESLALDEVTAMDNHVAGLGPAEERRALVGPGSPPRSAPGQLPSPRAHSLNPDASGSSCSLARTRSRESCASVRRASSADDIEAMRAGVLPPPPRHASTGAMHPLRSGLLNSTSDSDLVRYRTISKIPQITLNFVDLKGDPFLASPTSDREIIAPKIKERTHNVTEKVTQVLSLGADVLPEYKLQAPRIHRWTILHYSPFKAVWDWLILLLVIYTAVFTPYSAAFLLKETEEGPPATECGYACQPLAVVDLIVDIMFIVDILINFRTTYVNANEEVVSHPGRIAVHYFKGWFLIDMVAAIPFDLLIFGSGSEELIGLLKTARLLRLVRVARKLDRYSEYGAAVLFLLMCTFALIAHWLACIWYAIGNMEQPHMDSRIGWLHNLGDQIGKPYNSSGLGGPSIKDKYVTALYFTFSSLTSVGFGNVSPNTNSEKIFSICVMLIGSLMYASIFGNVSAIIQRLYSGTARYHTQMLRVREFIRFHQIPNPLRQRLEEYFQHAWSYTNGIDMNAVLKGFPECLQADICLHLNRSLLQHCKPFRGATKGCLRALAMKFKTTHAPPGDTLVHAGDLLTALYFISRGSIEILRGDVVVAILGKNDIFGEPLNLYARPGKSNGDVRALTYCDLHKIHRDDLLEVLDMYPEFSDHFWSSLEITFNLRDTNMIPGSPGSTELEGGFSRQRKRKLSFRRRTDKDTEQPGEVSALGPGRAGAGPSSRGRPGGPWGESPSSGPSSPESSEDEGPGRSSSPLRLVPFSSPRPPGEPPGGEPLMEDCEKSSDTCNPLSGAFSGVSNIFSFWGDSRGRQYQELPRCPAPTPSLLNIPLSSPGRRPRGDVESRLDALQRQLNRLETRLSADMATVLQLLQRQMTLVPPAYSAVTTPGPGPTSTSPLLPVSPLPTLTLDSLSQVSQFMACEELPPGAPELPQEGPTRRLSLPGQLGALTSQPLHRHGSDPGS
T1 sequence (Q12809 whole entry): as above

As to `CC(C)CNC(=O)c1cccc(NC(=O)COc2ccc(C(=O)c3cc(Cl)ccc3Br)cc2)c1`, on hERG (KCNH2), the activity at 1 h, 10 µM was found to be 46%.

Consider `O=C(COc1ccc(C(=O)c2cc(Cl)ccc2Br)cc1)Nc1cccc(C(=O)NCC2CCC2)c1`, for which the activity at 1 h, 10 µM on hERG (KCNH2) was 38%. Take `O=C(COc1ccc(C(=O)c2cc(Cl)ccc2Br)cc1)Nc1cccc(C(=O)NC2CC2)c1`: the activity at 1 h, 10 µM on hERG (KCNH2) stood at 27%.

Regarding `CNC(=O)c1cccc(NC(=O)COc2ccc(C(=O)c3cc(Cl)ccc3Br)cc2)c1`, the activity at 1 h, 10 µM at hERG (KCNH2) was found to be 39.8%. The same measure, in the same setting: under `N#Cc1cc(Cl)cc(NC(=O)COc2ccc(C(=O)c3cc(Cl)ccc3Br)cc2)c1` stands 36%.

As to `N#Cc1cccc(NC(=O)COc2ccc(C(=O)c3cc(Cl)ccc3Br)cc2)c1`, the IC50 in [1] is 28.3 nM. For the same molecule, the activity at 1 h, 10 µM on hERG (KCNH2) came to 20%.

Take `Cc1cnccc1NC(=O)COc1ccc(C(=O)c2cc(Cl)ccc2Br)cc1`: in [2], the half-inhibitory concentration (IC50) was determined as 14.1 nM. In addition, at hERG (KCNH2), the activity at 1 h, 10 µM was determined as 15%. `O=C(COc1ccc(C(=O)c2cc(Cl)ccc2Br)cc1)Nc1cccc(C(=O)NCC2CC2)c1Cl`: the activity at 1 h, 10 µM at hERG (KCNH2) is -2%.

As to `O=C(COc1ccc(C(=O)c2cc(Cl)ccc2Br)cc1)Nc1cncc(C(=O)NCC2CC2)c1`, the Activity entry in [3], in [4] and in series [6] was “Active” throughout. In [5], the Activity result is reported as “Active”. Moreover, the activity at 1 h, 10 µM on hERG (KCNH2) stood at 2%. As for `N#Cc1cc(NC(=O)COc2ccc(C(=O)c3cc(Cl)ccc3Br)cc2)ccc1F`, the activity at 1 h, 10 µM at hERG (KCNH2) was 22.7%. With `O=C(COc1ccc(C(=O)c2cc(Cl)ccc2Br)cc1)Nc1cccnc1`, at hERG (KCNH2), the activity at 1 h, 10 µM was 28.2%.

Turning to `Cc1ccc(NC(=O)COc2ccc(C(=O)c3cc(Cl)ccc3Br)cc2)cc1C#N`, on hERG (KCNH2), the activity at 1 h, 10 µM amounted to 87%.

Regarding `COc1cc(NC(=O)COc2ccc(C(=O)c3cc(Cl)ccc3Br)cc2)ccn1`, the activity at 1 h, 10 µM at hERG (KCNH2) stood at 90%. Regarding `O=C(COc1ccc(C(=O)c2cc(Cl)ccc2Br)cc1)Nc1cc(Cl)cc(C(=O)NCC2CC2)c1`, at hERG (KCNH2), the activity at 1 h, 10 µM was found to be 36%. With `Cc1cc(NC(=O)COc2ccc(C(=O)c3cc(Cl)ccc3Br)cc2)ccn1`, in [3], the Activity result was “Active”. The Activity entry in series [7], in [8] and in [6] was “inactive” throughout. In addition, in [5], the Activity entry is given as “Active”. Also, the activity at 1 h, 10 µM on hERG (KCNH2) is 9%. For the molecule `O=C(COc1ccc(C(=O)c2cc(Cl)ccc2Br)cc1)Nc1ccnc(C(=O)NCC2CC2)c1`, on hERG (KCNH2), the activity at 1 h, 10 µM was 53%. For `O=C(COc1ccc(C(=O)c2cc(Cl)ccc2Br)cc1)Nc1ccc(Cl)c(C(=O)NCC2CC2)c1`, at hERG (KCNH2), the activity at 1 h, 10 µM worked out at 20%.

With `N#Cc1ccc(Cl)c(NC(=O)COc2ccc(C(=O)c3cc(Cl)ccc3Br)cc2)c1`, the activity at 1 h, 10 µM at hERG (KCNH2) came out at 44%. For `COc1ccc(C#N)cc1NC(=O)COc1ccc(C(=O)c2cc(Cl)ccc2Br)cc1`, the activity at 1 h, 10 µM on hERG (KCNH2) was 28%.

On to `COc1ccc(NC(=O)COc2ccc(C(=O)c3cc(Cl)ccc3Br)cc2)cc1C#N`, for which, on hERG (KCNH2), the activity at 1 h, 10 µM is 60%. On to `O=C(COc1ccc(C(=O)c2cc(Cl)ccc2Br)cc1)Nc1ccnc(Cl)c1`, for which the activity at 1 h, 10 µM at hERG (KCNH2) is 52%. For the molecule `N#Cc1cc(NC(=O)COc2ccc(C(=O)c3cc(Cl)ccc3Br)cc2)ccc1Cl`, the activity at 1 h, 10 µM on hERG (KCNH2) worked out at 86%.

For `O=C(COc1ccc(C(=O)c2cc(Cl)ccc2Br)cc1)Nc1ccncc1`, the IC50 in series [9] is listed as 43.7 nM. Further, the activity at 1 h, 10 µM on hERG (KCNH2) was 26.1%. Consider `N#Cc1cccc(NC(=O)COc2ccc(C(=O)c3cc(Cl)ccc3Br)cc2)c1F`, for which the activity at 1 h, 10 µM at hERG (KCNH2) was determined as 21%.

Turning to `O=C(COc1ccc(C(=O)c2cc(Cl)ccc2Br)cc1)Nc1cccc(C(=O)NCC2CC2)c1`, on hERG (KCNH2), the activity at 1 h, 10 µM came out at 36.6%.

As to `N#Cc1cncc(NC(=O)COc2ccc(C(=O)c3cc(Cl)ccc3Br)cc2)c1`, the Activity result in series [10], in [7] and in [8] was “inactive” in each case. Further, in series [6], the Activity result is “Active”. `O=C(COc1ccc(C(=O)c2cc(Cl)ccc2Br)cc1)Nc1ccnc(F)c1`: at hERG (KCNH2), the activity at 1 h, 10 µM is 56.1%. `O=C(COc1ccc(C(=O)c2ccccc2Br)cc1)Nc1cccnc1`: the Activity result in series [11] was “inactive”. In addition, the values for the Activity result in series [12] and in [14] were “Active” and “Dose-dependent effect”, respectively. Further, at hERG (KCNH2), the activity at 1 h, 10 µM was determined as 29.8%. The Activity result in series [13] and in series [6] was “Active” each time. For `O=C(COc1ccc(C(=O)c2cc(Cl)ccc2Br)cc1)Nc1cc(C(=O)NCC2CC2)ccc1Cl`, the activity at 1 h, 10 µM on hERG (KCNH2) worked out at 89%.

For orientation: IC50 means the point on the concentration scale where inhibition reaches its midpoint.
